Assays:
[1] = tested on: Plasmodium falciparum; experiment: Antiplasmodial activity against chloroquine-resistant Plasmodium falciparum Dd2 by LDH assay; type: functional, organism-based
[2] = tested on: Leishmania donovani; experiment: Antileishmanial activity against Leishmania donovani 1S promastigotes assessed as inhibition of parasite growth incubated for 72 hrs by resazurin dye based assay; type: functional, organism-based
[3] = tested on: Plasmodium falciparum; experiment: Antiplasmodial activity against chloroquine-sensitive Plasmodium falciparum NF54 by LDH assay; type: functional, organism-based
[4] = Selectivity index, ratio of IC50 for antileishmanial activity against Leishmania major IR-173 promastigotes to IC50 for antileishmanial activity against Leishmania donovani 1S promastigotes incubated for 72 hrs by resazurin dye based assay; type: functional
[5] = tested on: Leishmania donovani; experiment: Antileishmanial activity against Leishmania donovani 9515 promastigotes assessed as inhibition of parasite growth incubated for 72 hrs by resazurin dye based assay; type: functional, organism-based; details: Leishmania donovani, 9515, 72 h
[6] = in vitro; details: hamster, CHO cells
[7] = Selectivity index, ratio of IC50 for antileishmanial activity against Leishmania major IR-173 promastigotes to IC50 for antileishmanial activity against Leishmania donovani 9515 promastigotes incubated for 72 hrs by resazurin dye based assay; type: functional
[8] = tested on: CHO; experiment: Cytotoxicity against CHO cells assessed as reduction in cell viability by MTT assay; type: cell-based; details: Cricetulus griseus
[9] = Selectivity index, ratio of IC50 for CHO cells to IC50 for antileishmanial activity against Leishmania donovani 1S by resazurin dye based assay; type: toxicity; details: hamster, read-out: Ratio IC50
[10] = tested on: Leishmania major; experiment: Antileishmanial activity against Leishmania major IR-173 promastigotes assessed as inhibition of parasite growth incubated for 72 hrs by resazurin dye based assay; type: functional, organism-based; details: IR-173, 72 h
[11] = Selectivity index, ratio of IC50 for CHO cells to IC50 for antileishmanial activity against Leishmania donovani 9515 by resazurin dye based assay; type: toxicity; details: hamster, read-out: Ratio IC50
[12] = tested on: Leishmania donovani; experiment: Potency index, ratio of artesunate IC50 to test compound IC50 for antileishmanial activity against Leishmania donovani 9515 promastigotes incubated for 72 hrs by resazurin dye based assay; type: functional
[13] = tested on: Leishmania donovani; experiment: Potency index, ratio of artesunate IC50 to test compound IC50 for antileishmanial activity against Leishmania donovani 1S promastigotes incubated for 72 hrs by resazurin dye based assay; type: functional
[14] = tested on: Leishmania donovani; experiment: Potency index, ratio of artemether IC50 to test compound IC50 for antileishmanial activity against Leishmania donovani 1S promastigotes incubated for 72 hrs by resazurin dye based assay; type: functional
[15] = tested on: Leishmania donovani; experiment: Potency index, ratio of artemether IC50 to test compound IC50 for antileishmanial activity against Leishmania donovani 9515 promastigotes incubated for 72 hrs by resazurin dye based assay; type: functional
[16] = tested on: Leishmania donovani; experiment: Potency index, ratio of dihydroartemisinin IC50 to test compound IC50 for antileishmanial activity against Leishmania donovani 9515 promastigotes incubated for 72 hrs by resazurin dye based assay; type: functional
[17] = tested on: Leishmania donovani; experiment: Potency index, ratio of dihydroartemisinin IC50 to test compound IC50 for antileishmanial activity against Leishmania donovani 1S promastigotes incubated for 72 hrs by resazurin dye based assay; type: functional

SMILES | IC50 [1] [µM] | IC50 [2] [µM] | IC50 [3] [µM] | Ratio IC50 [4] | IC50 [5] [µM] | selectivity ratio [6] | Ratio IC50 [7] | IC50 [8] [µM] | selectivity ratio [9] | IC50 [10] [µM] | selectivity ratio [11] | Ratio IC50 [12] | Ratio IC50 [13] | Ratio IC50 [14] | Ratio IC50 [15] | Ratio IC50 [16] | Ratio IC50 [17]
C[C@@H]1CC[C@H]2C(C)(C=O)O[C@@H]3O[C@@]4(C)CC[C@@H]1[C@]32OO4 (stereo partly specified) | 0.0041 | 8.07 | 0.0069 | 3 | 2.55 | 4 | 3 | > 100 | > 39 | 26.6 | 13 | – | – | – | – | – | –
Cc1csc(C(=O)OCC2(C)O[C@@H]3O[C@@]4(C)CC[C@H]5[C@H](C)CC[C@@H]2[C@@]35OO4)c1 (stereo partly specified) | 0.0071 | 5.61 | 0.0072 | – | 6.48 | 24 | – | > 100 | > 15 | 4.26 | 18 | 30 | 30 | 30 | 30 | 30 | 30

Reference: ChEMBL document CHEMBL4699524 (Bioorg Med Chem Lett, 2020)
